Measurements taken from ChEMBL document CHEMBL3885861, “Open TG-GATES”.

Species on record: Rattus norvegicus
Assay: Open TG-GATES - Regimen: Daily Repeat
Type: toxicity, organism-based, Sprague-Dawley
Set-up: regimen Daily Repeat, gender Male, age 6 weeks
Details: in vivo, po, route gavage; for KIDNEY_L / KIDNEY_R / KIDNEY_TOTAL: tissue Kidney; for ALP / ALT / AST / BUN / CRE / Ca / Cl / DBIL / GLC / IP / K / LDH / Na / RALB / TBIL / TC / TG / TP / gamma-GTP / PL: tissue Plasma
[1] = 200 mg/kg, 72 h, tissue Blood, dose level Middle, time 3 day
[2] = 200 mg/kg, 72 h, dose level Middle, time 3 day
[3] = 200 mg/kg, […], dose level Middle, time 7 day
[4] = 200 mg/kg, […], dose level Middle, time 14 day
[5] = 200 mg/kg, […], dose level Middle, time 28 day
[6] = 200 mg/kg, […], tissue Blood, dose level Middle, time 7 day
[7] = 200 mg/kg, […], tissue Blood, dose level Middle, time 14 day
[8] = 200 mg/kg, […], tissue Blood, dose level Middle, time 28 day
[9] = 600 mg/kg, 72 h, dose level High, time 3 day
[10] = 600 mg/kg, 72 h, tissue Blood, dose level High, time 3 day
[11] = 600 mg/kg, […], dose level High, time 7 day
[12] = 600 mg/kg, […], dose level High, time 14 day
[13] = 600 mg/kg, […], dose level High, time 28 day
[14] = 600 mg/kg, […], tissue Blood, dose level High, time 7 day
[15] = 600 mg/kg, […], tissue Blood, dose level High, time 14 day
[16] = 600 mg/kg, […], tissue Blood, dose level High, time 28 day

CC(=O)Nc1nnc(S(N)(=O)=O)s1 [ACETAZOLAMIDE]
APTT [1]: 19.2 s
Bas [1]: 0%
Eos [1]: 1.2%
Fbg [1]: 313.4 mg/dL
Ht [1]: 39.9%
MCH [1]: 21.3 pg
MCHC [1]: 34.1%
MCV [1]: 62.6 fL
Mono [1]: 3%
Neu [1]: 18.6%
PT [1]: 16.5 s
RBC [1]: 637.6 x10_4/ul
Ret [1]: 5.3%
KIDNEY_L [2]: 1.1 g
KIDNEY_R [2]: 1 g
KIDNEY_TOTAL [2]: 2.1 g
ALP [2]: 1836.6 IU/L
ALT [2]: 45.2 IU/L
AST [2]: 64.2 IU/L
BUN [2]: 20 mg/dL
CRE [2]: 0.2 mg/dL
Ca [2]: 10.8 mg/dL
Cl [2]: 109.6 meq/L
DBIL [2]: 0 mg/dL
GLC [2]: 175.2 mg/dL
IP [2]: 7.5 mg/dL
K [2]: 4.1 meq/L
LDH [2]: 187.8 IU/L
Na [2]: 142.4 meq/L
RALB [2]: 3 g/dL
TBIL [2]: 0.008 mg/dL
TC [2]: 83.2 mg/dL
TG [2]: 81.6 mg/dL
TP [2]: 5.3 g/dL
gamma-GTP [2]: 1.4 IU/L
TERMINAL_BW [3]: 243.9 g
TERMINAL_BW [4]: 281.3 g
TERMINAL_BW [5]: 340.5 g
APTT [6]: 20 s
Bas [6]: 0%
Eos [6]: 1%
Fbg [6]: 338 mg/dL
Ht [6]: 39%
MCH [6]: 21.1 pg
MCHC [6]: 35.4%
MCV [6]: 59.7 fL
Mono [6]: 2.6%
RBC [6]: 653.4 x10_4/ul
Ret [6]: 5.9%
APTT [7]: 22 s
Bas [7]: 0%
Eos [7]: 0.6%
Fbg [7]: 302.4 mg/dL
Ht [7]: 40.2%
MCH [7]: 20.4 pg
MCHC [7]: 35.2%
MCV [7]: 57.9 fL
Mono [7]: 1.4%
Neu [7]: 17.6%
RBC [7]: 696.2 x10_4/ul
Ret [7]: 4.5%
APTT [8]: 24.7 s
Bas [8]: 0%
Eos [8]: 0.8%
Fbg [8]: 312.2 mg/dL
Ht [8]: 42%
MCH [8]: 19.3 pg
MCHC [8]: 34.7%
Mono [8]: 1.8%
PT [8]: 16.5 s
RBC [8]: 757.6 x10_4/ul
Ret [8]: 3%
KIDNEY_L [3]: 1.1 g
KIDNEY_R [3]: 1.1 g
KIDNEY_TOTAL [3]: 2.2 g
KIDNEY_L [4]: 1.2 g
KIDNEY_R [4]: 1.2 g
KIDNEY_TOTAL [4]: 2.5 g
KIDNEY_L [5]: 1.4 g
KIDNEY_R [5]: 1.4 g
KIDNEY_TOTAL [5]: 2.8 g
ALP [3]: 1704.2 IU/L
ALT [3]: 44 IU/L
AST [3]: 67.4 IU/L
BUN [3]: 20.4 mg/dL
CRE [3]: 0.2 mg/dL
Ca [3]: 10.7 mg/dL
Cl [3]: 110.8 meq/L
DBIL [3]: 0 mg/dL
GLC [3]: 186.8 mg/dL
IP [3]: 6.7 mg/dL
K [3]: 4.2 meq/L
LDH [3]: 179 IU/L
Na [3]: 143.6 meq/L
PL [3]: 140.2 mg/dL
RALB [3]: 2.9 g/dL
TBIL [3]: 0 mg/dL
TC [3]: 69.8 mg/dL
TG [3]: 133.8 mg/dL
TP [3]: 5.1 g/dL
gamma-GTP [3]: 1.4 IU/L
ALP [4]: 1326.4 IU/L
ALT [4]: 42 IU/L
AST [4]: 65.6 IU/L
BUN [4]: 19 mg/dL
CRE [4]: 0.2 mg/dL
Ca [4]: 10.6 mg/dL
Cl [4]: 107.4 meq/L
DBIL [4]: 0 mg/dL
GLC [4]: 184.4 mg/dL
IP [4]: 6.7 mg/dL
K [4]: 3.7 meq/L
LDH [4]: 139 IU/L
Na [4]: 143.8 meq/L
PL [4]: 142.4 mg/dL
RALB [4]: 3.1 g/dL
TBIL [4]: 0.002 mg/dL
TC [4]: 69.8 mg/dL
TP [4]: 5.6 g/dL
gamma-GTP [4]: 2 IU/L
ALP [5]: 1449.8 IU/L
ALT [5]: 44.2 IU/L
AST [5]: 69 IU/L
BUN [5]: 17.2 mg/dL
CRE [5]: 0.2 mg/dL
Cl [5]: 108.2 meq/L
DBIL [5]: 0 mg/dL
GLC [5]: 179.6 mg/dL
IP [5]: 5.4 mg/dL
K [5]: 3.8 meq/L
LDH [5]: 136.8 IU/L
Na [5]: 141.8 meq/L
PL [5]: 159 mg/dL
RALB [5]: 3.2 g/dL
TBIL [5]: 0.002 mg/dL
TC [5]: 81.4 mg/dL
TG [5]: 136.4 mg/dL
TP [5]: 6 g/dL
gamma-GTP [5]: 2.4 IU/L
TERMINAL_BW [9]: 195.4 g
APTT [10]: 18.7 s
Bas [10]: 0%
Eos [10]: 1%
Fbg [10]: 285 mg/dL
Ht [10]: 41.9%
Lym [10]: 86%
MCH [10]: 20.5 pg
MCHC [10]: 34.2%
MCV [10]: 59.9 fL
Mono [10]: 2.4%
Neu [10]: 9.6%
PT [10]: 17.7 s
RBC [10]: 699.4 x10_4/ul
Ret [10]: 3.9%
KIDNEY_L [9]: 0.9 g
KIDNEY_R [9]: 0.9 g
KIDNEY_TOTAL [9]: 1.8 g
ALP [9]: 1356 IU/L
ALT [9]: 43 IU/L
AST [9]: 57.8 IU/L
BUN [9]: 22.6 mg/dL
CRE [9]: 0.2 mg/dL
Ca [9]: 10.8 mg/dL
Cl [9]: 116 meq/L
DBIL [9]: 0 mg/dL
GLC [9]: 186.6 mg/dL
IP [9]: 7.9 mg/dL
K [9]: 4.1 meq/L
LDH [9]: 211.2 IU/L
Na [9]: 142.6 meq/L
PL [9]: 151.8 mg/dL
RALB [9]: 3 g/dL
TBIL [9]: 0.006 mg/dL
TC [9]: 84 mg/dL
TG [9]: 90.6 mg/dL
TP [9]: 5.4 g/dL
gamma-GTP [9]: 1 IU/L
TERMINAL_BW [11]: 226.8 g
TERMINAL_BW [12]: 263.9 g
TERMINAL_BW [13]: 330.6 g
APTT [14]: 19.2 s
Bas [14]: 0%
Eos [14]: 1%
Fbg [14]: 314.4 mg/dL
Ht [14]: 39.9%
MCH [14]: 21 pg
MCHC [14]: 34.5%
MCV [14]: 60.9 fL
Mono [14]: 2.4%
RBC [14]: 656.2 x10_4/ul
Ret [14]: 6%
APTT [15]: 21.5 s
Bas [15]: 0%
Eos [15]: 0.8%
Fbg [15]: 315.6 mg/dL
MCH [15]: 20.4 pg
MCHC [15]: 35.3%
MCV [15]: 57.8 fL
Mono [15]: 2.4%
Neu [15]: 23.6%
PT [15]: 16.7 s
RBC [15]: 708 x10_4/ul
Ret [15]: 5.3%
APTT [16]: 23 s
Bas [16]: 0%
Eos [16]: 1%
Fbg [16]: 306.4 mg/dL
Ht [16]: 42.1%
MCH [16]: 19.4 pg
MCHC [16]: 34%
MCV [16]: 57 fL
Mono [16]: 2.8%
PT [16]: 16.9 s
RBC [16]: 739.2 x10_4/ul
Ret [16]: 3.4%
KIDNEY_L [11]: 1.1 g
KIDNEY_R [11]: 1.1 g
KIDNEY_TOTAL [11]: 2.1 g
KIDNEY_L [12]: 1.2 g
KIDNEY_R [12]: 1.3 g
KIDNEY_TOTAL [12]: 2.5 g
KIDNEY_L [13]: 1.4 g
KIDNEY_R [13]: 1.4 g
KIDNEY_TOTAL [13]: 2.8 g
ALP [11]: 1613 IU/L
ALT [11]: 46 IU/L
AST [11]: 71.6 IU/L
BUN [11]: 20 mg/dL
CRE [11]: 0.2 mg/dL
Ca [11]: 10.9 mg/dL
Cl [11]: 114.2 meq/L
DBIL [11]: 0 mg/dL
GLC [11]: 179.8 mg/dL
IP [11]: 7.2 mg/dL
K [11]: 4.2 meq/L
LDH [11]: 162.8 IU/L
Na [11]: 144.6 meq/L
PL [11]: 167.4 mg/dL
RALB [11]: 3 g/dL
TBIL [11]: 0 mg/dL
TC [11]: 84.2 mg/dL
TG [11]: 124 mg/dL
TP [11]: 5.4 g/dL
gamma-GTP [11]: 1.2 IU/L
ALP [12]: 1257.6 IU/L
ALT [12]: 40.4 IU/L
AST [12]: 61.4 IU/L
BUN [12]: 18.8 mg/dL
CRE [12]: 0.2 mg/dL
Ca [12]: 10.5 mg/dL
Cl [12]: 110.6 meq/L
DBIL [12]: 0 mg/dL
GLC [12]: 181.8 mg/dL
IP [12]: 7 mg/dL
K [12]: 3.7 meq/L
LDH [12]: 141.6 IU/L
Na [12]: 143.4 meq/L
PL [12]: 152.2 mg/dL
RALB [12]: 3 g/dL
TBIL [12]: 0.004 mg/dL
TC [12]: 76.2 mg/dL
TG [12]: 130.4 mg/dL
TP [12]: 5.5 g/dL
gamma-GTP [12]: 1.8 IU/L
ALP [13]: 1120.2 IU/L
AST [13]: 66.4 IU/L
BUN [13]: 18.4 mg/dL
CRE [13]: 0.2 mg/dL
Ca [13]: 10.2 mg/dL
Cl [13]: 111.2 meq/L
DBIL [13]: 0 mg/dL
GLC [13]: 178 mg/dL
IP [13]: 5.6 mg/dL
K [13]: 3.8 meq/L
LDH [13]: 149 IU/L
Na [13]: 142.6 meq/L
PL [13]: 136.2 mg/dL
RALB [13]: 3.2 g/dL
TBIL [13]: 0.01 mg/dL
TC [13]: 71.6 mg/dL
TG [13]: 115.4 mg/dL
TP [13]: 5.6 g/dL
gamma-GTP [13]: 2.2 IU/L
